Biological target: T1, Neuropeptide Y receptor type 1 (Homo sapiens, UniProt P25929)
T1 sequence (P25929 whole entry): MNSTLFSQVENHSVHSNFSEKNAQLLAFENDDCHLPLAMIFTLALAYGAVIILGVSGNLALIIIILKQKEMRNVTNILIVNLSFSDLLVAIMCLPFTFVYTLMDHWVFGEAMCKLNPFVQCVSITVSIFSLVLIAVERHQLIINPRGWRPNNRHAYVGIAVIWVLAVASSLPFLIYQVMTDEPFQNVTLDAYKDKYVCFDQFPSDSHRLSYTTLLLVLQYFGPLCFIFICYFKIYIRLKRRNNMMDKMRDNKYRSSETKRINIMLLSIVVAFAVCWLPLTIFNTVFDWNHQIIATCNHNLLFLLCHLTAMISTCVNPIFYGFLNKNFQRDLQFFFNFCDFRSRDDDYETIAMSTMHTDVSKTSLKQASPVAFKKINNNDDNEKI
Assay: Inhibition of binding of [125I]PYY to membranes of SK-N-MC cells expressing the human Y1 receptors

SMILES | IC50 [nM]
COC(=O)C1=C(C)N=C(C)C(C(=O)OC)C1c1cccc(NC(=O)NCCNC2CCN(c3ccccc3C)CC2)c1 (stereo unspecified) [2,6-Dimethyl-4-(3-{3-[2-(1-o-tolyl-piperidin-4-ylamino)-ethyl]-ureido}-phenyl)-1,4-dihydro-pyridine-3,5-dicarboxylic acid dimethyl ester] | 4
COC(=O)C1=C(C)N=C(C)C(C(=O)OC)C1c1cccc(NC(=O)NCCNC2CCN(c3ccccc3)CC2)c1 (stereo unspecified) [2,6-Dimethyl-4-(3-{3-[2-(1-phenyl-piperidin-4-ylamino)-ethyl]-ureido}-phenyl)-1,4-dihydro-pyridine-3,5-dicarboxylic acid dimethyl ester] | 2
COC(=O)C1=C(C)N=C(C)C(C(=O)OC)C1c1cccc(NC(=O)NCCNC2CCN(c3ccccc3SC)CC2)c1 (stereo unspecified) [2,6-Dimethyl-4-[3-(3-{2-[1-(2-methylsulfanyl-phenyl)-piperidin-4-ylamino]-ethyl}-ureido)-phenyl]-1,4-dihydro-pyridine-3,5-dicarboxylic acid dimethyl ester] | 5
COC(=O)C1=C(C)NC(C)=C(C(=O)OC)C1c1cccc(NC(=O)NCCNC2CCN(c3ccccc3[N+](=O)[O-])CC2)c1 [2,6-Dimethyl-4-[3-(3-{2-[1-(2-nitro-phenyl)-piperidin-4-ylamino]-ethyl}-ureido)-phenyl]-1,4-dihydro-pyridine-3,5-dicarboxylic acid dimethyl ester] | 2
COC(=O)C1=C(C)N=C(C)C(C(=O)OC)C1c1cccc(NC(=O)NCCNC2CCN(c3ccccc3C#N)CC2)c1 (stereo unspecified) [4-[3-(3-{2-[1-(2-Cyano-phenyl)-piperidin-4-ylamino]-ethyl}-ureido)-phenyl]-2,6-dimethyl-1,4-dihydro-pyridine-3,5-dicarboxylic acid dimethyl ester] | 3
COC(=O)C1=C(C)N=C(C)C(C(=O)OC)C1c1cccc(NC(=O)NCCNC2CCN(c3cccc(Cl)c3)CC2)c1 (stereo unspecified) [4-[3-(3-{2-[1-(3-Chloro-phenyl)-piperidin-4-ylamino]-ethyl}-ureido)-phenyl]-2,6-dimethyl-1,4-dihydro-pyridine-3,5-dicarboxylic acid dimethyl ester] | 8
COC(=O)C1=C(C)N=C(C)C(C(=O)OC)C1c1cccc(NC(=NC#N)NCCNC2CCN(c3cccc(Cl)c3)CC2)c1 (stereo unspecified) [N-arylpiperazine derivative] | 8
COC(=O)C1=C(C)N=C(C)C(C(=O)OC)C1c1cccc(NC(=NC#N)NCCNC2CCN(c3ccccc3C#N)CC2)c1 (stereo unspecified) [N-arylpiperazine derivative] | 3
COC(=O)C1=C(C)N=C(C)C(C(=O)OC)C1c1cccc(NC(=NC#N)NCCNC2CCN(c3ccccc3C)CC2)c1 (stereo unspecified) [N-arylpiperazine derivative] | 4
COC(=O)C1=C(C)N=C(C)C(C(=O)OC)C1c1cccc(NC(=NC#N)NCCNC2CCN(c3ccccc3SC)CC2)c1 (stereo unspecified) [N-arylpiperazine derivative] | 3
COC(=O)C1=C(C)NC(C)=C(C(=O)OC)C1c1cccc(NC(=NC#N)NCCNC2CCN(c3ccccc3[N+](=O)[O-])CC2)c1 [N-arylpiperazine derivative] | 4
